Reference: US7259166B2, “Substituted-cycloalkyl and oxygenated-cycloalkyl glucokinase activators” (Hoffmann-La Roche Inc., priority 2002, dated 2007)

Tested on: not given
Assay: not given
Conditions: not given

Row | Structure (SMILES) | melting point
1 | O=C(Nc1nccs1)C(CC1CCCO1)c1ccc(Cl)c(Cl)c1 (stereo not shown) [Example 2, 2-(3,4-Dichloro-phenyl)-3-(tetrahydro-furan-2-yl)-N-thiazol-2-yl-propionamide] | 69 to 71 °C
2 | CNC(=O)NC(=O)C(CC1CCCCO1)c1ccc(Cl)c(Cl)c1 (stereo not shown) [Example 7, 1-[2-(3,4-Dichloro-phenyl)-3-(tetrahydro-pyran-2-yl)-propionyl]-3-methyl urea] | 172.8 to 174.2 °C
3 | CS(=O)(=O)c1ccc(C(CC2CCOCC2)C(=O)Nc2cnc(/C(N)=N/O)cn2)cc1Cl (stereo not shown) [Example 23] | 137.2 to 140.5 °C
4 | CNC(=O)NC(=O)C(CC1CCCC1O)c1ccc(Cl)c(Cl)c1 (stereo not shown) [Example 24, 1-[2-(3,4-Dichloro-phenyl)-3-(2-hydroxy-cyclopentyl)-propionyl]-3-methyl-urea] | 62 to 64 °C
5 | O=C(Nc1nccs1)C(CC1CCCC1O)c1ccc(Cl)c(Cl)c1 (stereo not shown) [Example 25, 2-(3,4-Dichloro-phenyl)-3-(2-hydroxy-cyclopentyl)-N-thiazol-2-yl-propionamide] | 86 to 88 °C
6 | CS(=O)(=O)c1ccc(C(CC2CCCC2O)C(=O)Nc2nccs2)cc1 (stereo not shown) [Example 26, 3-(2-Hydroxy-cyclopentyl)-2-(4-methanesulfonyl-phenyl)-N-thiazol-2-yl-propionamide] | 205 to 206 °C
7 | CNC(=O)NC(=O)C(CC1CCCC1=O)c1ccc(Cl)c(Cl)c1 (stereo not shown) [Example 27, 1-[2-(3,4-Dichloro-phenyl)-3-(2-oxo-cyclopentyl)-propionyl]-3-methyl-urea] | 63 to 65 °C
8 | O=C1CCCC1CC(C(=O)Nc1nccs1)c1ccc(Cl)c(Cl)c1 (stereo not shown) [Example 28, 2-(3,4-Dichloro-phenyl)-3-(2-oxo-cyclopentyl)-N-thiazol-2-yl-propionamide] | 79 to 81 °C
9 | CS(=O)(=O)c1ccc(C(CC2CCCC2=O)C(=O)Nc2nccs2)cc1 (stereo not shown) [Example 29, 2-(4-Methanesulfonyl-phenyl)-3-(2-oxo-cyclopentyl)-N-thiazol-2-yl-propionamide] | 228 to 230 °C

Next, values leading:

Row | melting point | Structure (SMILES)
10 | 74 to 76 °C | CO/N=C1/CCCC1CC(C(=O)Nc1cnccn1)c1ccc(S(C)(=O)=O)c(Cl)c1 (stereo not shown) [Example 33, 2-(3-Chloro-4-methanesulfonyl-phenyl)-3-(2-methoxyimino-cyclopentyl)-N-pyrazin-2-yl-propionamide]
11 | 82 to 84 °C | CNC(=O)NC(=O)C(CC1CCC(O)C1)c1ccc(Cl)c(Cl)c1 (stereo not shown) [Example 35, 1-[2-(3,4-Dichloro-phenyl)-3-(3-hydroxy-cyclopentyl)-propionyl]-3-methyl-urea]
12 | 69 to 72 °C | CS(=O)(=O)c1ccc(C(CC2CCC(O)C2)C(=O)Nc2nccs2)cc1 (stereo not shown) [Example 37, 3-(3-Hydroxy-cyclopentyl)-2-(4-methanesulfonyl-phenyl)-N-thiazol-2-yl-propionamide]
13 | 49 to 52 °C | CC(=O)OC1CCC(CC(C(=O)Nc2nccs2)c2ccc(Cl)c(Cl)c2)C1 (stereo not shown) [Example 40, Acetic acid 3-[2-(3,4-dichloro-phenyl)-2-(thiazol-2-ylcarbamoyl)-ethyl]-cyclopentyl ester]
14 | 70 to 74 °C | CNC(=O)NC(=O)C(CC1CCC(=O)C1)c1ccc(Cl)c(Cl)c1 (stereo not shown) [Example 42, 1-[2-(3,4-Dichloro-phenyl)-3-(3-oxo-cyclopentyl)-propionyl]-3-methyl-urea]
15 | 146 to 148 °C | O=C1CCC(CC(C(=O)Nc2nccs2)c2ccc(Cl)c(Cl)c2)C1 (stereo not shown) [Example 43, 2-(3,4-Dichloro-phenyl)-3-(3-oxo-cyclopentyl)-N-thiazol-2-yl-propionamide]
16 | 94 to 97 °C | CS(=O)(=O)c1ccc(C(CC2CCC(=O)C2)C(=O)Nc2nccs2)cc1 (stereo not shown) [Example 44, 2-(4-Methanesulfonyl-phenyl)-3-(3-oxo-cyclopentyl)-N-thiazol-2-yl-propionamide]
17 | 97 to 103 °C | CS(=O)(=O)c1ccc(C(CC2CCC(=O)C2)C(=O)Nc2cnc(Br)cn2)cc1Cl (stereo not shown) [Example 49, N-(5-Bromo-pyrazin-2-yl)-2-(3-chloro-4-methanesulfonyl-phenyl)-3-(3-oxo-cyclopentyl)-propionamide]
18 | 98 to 101 °C | O=C(Nc1nccs1)C(CC1CC/C(=N/O)C1)c1ccc(Cl)c(Cl)c1 (stereo not shown) [Example 50, 2-(3,4-Dichloro-phenyl)-3-(3-hydroxyimino-cyclopentyl)-N-thiazol-2-yl-propionamide]
19 | 205 to 207 °C | CS(=O)(=O)c1ccc(C(CC2CC/C(=N/O)C2)C(=O)Nc2cnccn2)cc1Cl (stereo not shown) [Example 51, 2-(3-Chloro-4-methanesulfonyl-phenyl)-3-(3-hydroxyimino-cyclopentyl)-N-pyrazin-2-yl-propionamide]
20 | 100 to 106 °C | CS(=O)(=O)c1ccc(C(CC2CC/C(=N/O)C2)C(=O)Nc2cnc(Br)cn2)cc1Cl (stereo not shown) [Example 52, N-(5-Bromo-pyrazin-2-yl)-2-(3-chloro-4-methanesulfonyl-phenyl)-3-(3-hydroxyimino-cyclopentyl)-propionamide]
21 | 69 to 72 °C | CO/N=C1/CCC(CC(C(=O)Nc2nccs2)c2ccc(Cl)c(Cl)c2)C1 (stereo not shown) [Example 53, 2-(3,4-Dichloro-phenyl)-3-(3-methoxyimino-cyclopentyl)-N-thiazol-2-yl-propionamide]
22 | 85 to 87 °C | CO/N=C1/CCC(CC(C(=O)Nc2cnccn2)c2ccc(S(C)(=O)=O)c(Cl)c2)C1 (stereo not shown) [Example 54, 2-(3-Chloro-4-methanesulfonyl-phenyl)-3-(3-methoxyimino-cyclopentyl)-N-pyrazin-2-yl-propionamide]
23 | 91 to 97 °C | CO/N=C1/CCC(CC(C(=O)Nc2cnc(Br)cn2)c2ccc(S(C)(=O)=O)c(Cl)c2)C1 (stereo not shown) [Example 55, N-(5-Bromo-pyrazin-2-yl)-2-(3-chloro-4-methanesulfonyl-phenyl)-3-(3-methoxyimino-cyclopentyl)-propionamide]
24 | 154 to 156 °C | O=C(Nc1nccs1)C(CC1CCC(F)(F)C1)c1ccc(Cl)c(Cl)c1 (stereo not shown) [Example 56, 2-(3,4-Dichloro-phenyl)-3-(3,3-difluoro-cyclopentyl)-N-thiazol-2-yl-propionamide]
25 | 78 to 84 °C | CC1(O)CCC(CC(C(=O)Nc2cnccn2)c2ccc(S(C)(=O)=O)c(Cl)c2)C1 (stereo not shown) [Example 57, 2-(3-Chloro-4-methanesulfonyl-phenyl)-3-(3-hydroxy-3-methyl-cyclopentyl)-N-pyrazin-2-yl-propionamide]

Tested on: C57BL/6J mice
Assay: Glucokinase activator in vivo screen (blood glucose after oral dosing)
Conditions: oral gavage 50 mg/kg, two hour fast, blood glucose at 1, 2, 4 and 6 hours post dose
Experimental: Glucokinase Activator In Vivo Screen Protocol
C57BL/6J mice are orally dosed via gavage with Glucokinase (GK) activator at 50 mg/kg body weight following a two hour fasting period. Blood glucose determinations are made five times during the six hour post-dose study period.
Mice (n=6) are weighed and fasted for a two hour period prior to oral treatment.

Row | Structure (SMILES) | glucokinase activator in vivo activity when administered orally (decrease in blood glucose compared to vehicle)
26 | CS(=O)(=O)c1ccc(C(CC2CCOCC2)C(=O)Nc2cnc(Br)cn2)cc1Cl (stereo not shown) [Example 21, N-(5-Bromo-pyrazin-2-yl)-2-(3-chloro-4-methanesulfonyl-phenyl)-3-(tetrahydro-pyran-4-yl)-propionamide] | excellent glucokinase activator in vivo activity
27 | CS(=O)(=O)c1ccc(C(CC2CCOCC2)C(=O)Nc2cnc(/C(N)=N/O)cn2)cc1Cl (stereo not shown) [Example 23] | excellent glucokinase activator in vivo activity
28 | CS(=O)(=O)c1ccc(C(CC2CCC(=O)C2)C(=O)Nc2cnc(Br)cn2)cc1Cl (stereo not shown) [Example 49, N-(5-Bromo-pyrazin-2-yl)-2-(3-chloro-4-methanesulfonyl-phenyl)-3-(3-oxo-cyclopentyl)-propionamide] | excellent glucokinase activator in vivo activity
29 | CS(=O)(=O)c1ccc(C(CC2CC/C(=N/O)C2)C(=O)Nc2cnc(Br)cn2)cc1Cl (stereo not shown) [Example 52, N-(5-Bromo-pyrazin-2-yl)-2-(3-chloro-4-methanesulfonyl-phenyl)-3-(3-hydroxyimino-cyclopentyl)-propionamide] | excellent glucokinase activator in vivo activity
30 | CO/N=C1/CCC(CC(C(=O)Nc2cnccn2)c2ccc(S(C)(=O)=O)c(Cl)c2)C1 (stereo not shown) [Example 54, 2-(3-Chloro-4-methanesulfonyl-phenyl)-3-(3-methoxyimino-cyclopentyl)-N-pyrazin-2-yl-propionamide] | excellent glucokinase activator in vivo activity
31 | CO/N=C1/CCC(CC(C(=O)Nc2cnc(Br)cn2)c2ccc(S(C)(=O)=O)c(Cl)c2)C1 (stereo not shown) [Example 55, N-(5-Bromo-pyrazin-2-yl)-2-(3-chloro-4-methanesulfonyl-phenyl)-3-(3-methoxyimino-cyclopentyl)-propionamide] | excellent glucokinase activator in vivo activity
32 | CS(=O)(=O)c1ccc(C(CC2CCC(=O)CC2)C(=O)Nc2cnc(Br)cn2)cc1Cl (stereo not shown) [Example 59, N-(5-Bromo-pyrazin-2-yl)-2-(3-chloro-4-methanesulfonyl-phenyl)-3-(4-oxo-cyclohexyl)-propionamide] | excellent glucokinase activator in vivo activity
33 | CS(=O)(=O)c1ccc([C@@H](CC2CCC(=O)CC2)C(=O)Nc2cnc(Br)cn2)cc1Cl [Example 60, N-(5-Bromo-pyrazin-2-yl)-2(R)-(3-chloro-4-methanesulfonyl-phenyl)-3-(4-oxo-cyclohexyl)-propionamide] | excellent glucokinase activator in vivo activity
34 | CS(=O)(=O)c1ccc([C@@H](CC2CCC(=O)CC2)C(=O)Nc2cnc(Cl)cn2)cc1Cl [Example 61, 2(R)-(3-Chloro-4-methanesulfonyl-phenyl)-N-(5-chloro-pyrazin-2-yl)-3-(4-oxo-cyclohexyl)-propionamide] | excellent glucokinase activator in vivo activity
35 | CS(=O)(=O)c1ccc(C(CC2CCC(=NO)CC2)C(=O)Nc2cnc(Br)cn2)cc1Cl (stereo not shown) [Example 66, N-(5-Bromo-pyrazin-2-yl)-2-(3-chloro-4-methanesulfonyl-phenyl)-3-(4-hydroxyimino-cyclohexyl)-propionamide] | excellent glucokinase activator in vivo activity
36 | CS(=O)(=O)c1ccc([C@@H](CC2CCC(=NO)CC2)C(=O)Nc2cnc(Br)cn2)cc1Cl (stereo partly drawn) [Example 67, N-(5-Bromo-pyrazin-2-yl)-2(R)-(3-chloro-4-methanesulfonyl-phenyl)-3-(4-hydroxyimino-cyclohexyl)-propionamide] | excellent glucokinase activator in vivo activity
37 | CS(=O)(=O)c1ccc([C@@H](CC2CCC(=NO)CC2)C(=O)Nc2cnc(Cl)cn2)cc1Cl (stereo partly drawn) [Example 68, 2(R)-(3-Chloro-4-methanesulfonyl-phenyl)-N-(5-chloro-pyrazin-2-yl)-3-(4-hydroxyimino-cyclohexyl)-propionamide] | excellent glucokinase activator in vivo activity
